{"source": "patent US20150018403A1", "about": "“FLUORENE-AMIDE COMPOUNDS AND PHARMACEUTICAL USE THEREOF” (JAPAN TOBACCO INC., priority 2013, published 2015)", "system": "tissue PDH activity", "test": "Ex vivo PDH activation assay (liver and epididymal adipose tissue mitochondrial fractions after oral dosing)", "format": "in vivo, Sprague-Dawley rats", "details": "3 mg/kg, rat", "method": "The action of test compound on tissue PDH activity was evaluated. NADH production was detected via p-iodonitrotetrazolium violet (INT)-coupled system to measure PDH activity.\nNormal male Sprague-Dawley rats were randomly allocated m to the vehicle group and the test compound groups. The vehicle (0.5% aqueous methylcellulose solution, 5 mL/kg) or the test compound was orally administered to the rats. At 5 or 20 hr after administration, the rats were anesthetized with an intraperitoneal injection of sodium pentobarbital (60 mg/kg), and liver slices and epididymal adipose tissues were collected.\n(§1) To the liver slices were rapidly added 9 volumes of ice-cold homogenization buffer (0.25 mol/L sucrose, 5 mmol/L tris(hydroxymethyl)aminomethane hydrochloride (pH 7.5), 2 mmol/L EDTA), and the mixtures were homogenized using a Polytron homogenizer. The homogenates were centrifuged at 600×g, 4° C. for 10 min to obtain the supernatant. The supernatants (1 mL) were centrifuged at 16,000×g, 4° C. for 10 min to collect the precipitates. The precipitates were washed by resuspension in the homogenization buffer (1 mL) and centrifuged in the same manner. The precipitates were frozen with liquid nitrogen and stored at −80° C. as the liver mitochondrial fraction.\nas §1, with “adipose tissues” for “liver slices”, “3” for “9”, “of an” for “of”, “buffer,” for “buffer (0.25 mol/L sucrose, 5 mmol/L tris(hydroxymethyl)aminomethane hydrochloride (pH 7.5), 2 mmol/L EDTA),”, “supernatants” for “supernatants (1 mL)”, “adipose tissue” for “liver”\nThe mitochondrial fractions were thawed and suspended with the sample buffer (0.25 mol/L sucrose, 20 mmol/L tris(hydroxymethyl)aminomethane hydrochloride (pH 7.5), 50 mmol/L potassium chloride, and 1 mL/L 4-(1,1,3,3-tetramethylbutyl)phenyl-polyethylene glycol (Triton X-100)). Active PDH activity (PDHa activity) and total PDH activity (PDHt activity) were measured to evaluate the PDH activity. For the measurement of the PDHt activity, equal amounts of the mitochondrial suspension and the activation buffer (0.25 mol/L sucrose, 20 mmol/L tris(hydroxymethyl)aminomethane hydrochloride (pH 7.5), 50 mmol/L potassium chloride, 1 mL/L Triton X-100, 4 mmol/L calcium chloride, 40 mmol/L magnesium chloride, 10 mmol/L sodium dichloroacetate) were mixed, and the mixtures were incubated at 37° C. for 10 min. Forty microliters of the mitochondrial suspensions diluted with a sample buffer were added to a 96-well microplate for activity measurement and blank measurement. Then 180 μL of the reaction mixture (0.056 mmol/L potassium phosphate buffer (pH 7.5), 5.6 mmol/L DL-carnitine, 2.8 mmol/L NAD, 0.22 mmol/L thiamin pyrophosphate, 0.11 mmol/L Coenzyme A, 1.1 mL/L Triton X-100, 1.1 mmol/L magnesium chloride, 1.1 g/L bovine serum albumin, 0.67 mmol/L INT, 7.2 μmol/L phenazine methosulfate, 28 mmol/L sodium oxamate) was added to each well, and then 20 μL of 50 mmol/L sodium pyruvate for activity measurement or water for blank measurement were added. The mixtures were incubated at room temperature under shading. The absorbances at 500-750 nm, which were attributable to reduction of INT, the final electron acceptor, were measured using a microplate reader over time and the changes in the absorbance were calculated. The PDH activity was calculated by subtraction of the change in absorbance of the blank well from that of the activity measurement well. The percentage of the PDHa activity to the PDHt activity was calculated and taken as an index of the PDH activation."}
{"molecule": "C[C@H](O)COc1cc(-c2cnn(C(C)(C)C(N)=O)c2)c2c(c1)[C@@](O)(C(F)(F)F)c1ccccc1-2", "note": "[compound (2), 2-(4-{(9R)-9-hydroxy-2-[(2S)-2-hydroxypropoxy]-9-(trifluoromethyl)-9H-fluoren-4-yl}-1H-pyrazol-1-yl)-2-methylpropanamide]", "values": [{"measurement": "PDHa activity (% PDHt activity)", "setting": "adipose tissue, 5 hr after oral administration", "value": "72 ± 4", "unit": "% PDHt activity"}, {"measurement": "PDHa activity (% PDHt activity)", "setting": "adipose tissue, 20 hr after oral administration", "value": "44 ± 6", "unit": "% PDHt activity"}, {"measurement": "PDHa activity (% PDHt activity)", "setting": "liver, 5 hr after oral administration", "value": "67 ± 11", "unit": "% PDHt activity"}, {"measurement": "PDHa activity (% PDHt activity)", "setting": "liver, 20 hr after oral administration", "value": "41 ± 11", "unit": "% PDHt activity"}]}
